Laboratory results: patent publication US6677368B2, “4-aryl substituted indolinones” (Sugen, Inc., priority 2000, dated 2004)

What was measured:
MET = target: T1, MET (Homo sapiens, UniProt P08581); assay: MET transphosphorylation assay; format: biochemical; settings: GST fusion protein containing the Met kinase domain, poly(glu-tyr) substrate
T1 construct: Purified GST fusion protein containing the Met kinase domain, SUGEN, Inc
Description: MET TRANSPHOSPHORYLATION ASSAY
This assay is used to measure phosphotyrosine levels on a poly(glutamic acid:tyrosine, 4:1) substrate as a means for identifying agonists/antagonists of met transphosphorylation of the substrate.
1. Corning 96-well ELISA plates, Corning Catalog #25805-96.
2. Poly(glu-tyr), 4:1, Sigma, Cat. No; P 0275.
5. Blocking Buffer: Dissolve 25 g Bovine Serum Albumin, Sigma Cat. No A-7888, in 500 ml PBS, filter through a […] filter.
6. Purified GST fusion protein containing the Met kinase domain, SUGEN, Inc.
8. 10% aqueous (MilliQue H2O) DMSO.
9. 10 mM aqueous (dH2O) Adenosine-5′-triphosphate, Sigma Cat. No. A-5394.
10. 2×Kinase Dilution Buffer: for 100 ml, mix 10 mL 1M HEPES at pH 7.5 with 0.4 mL 5% BSA/PBS, 0.2 mL 0.1 M sodium orthovanadate and 1 mL 5M sodium chloride in 88.4 mL dH2O.
11. 4×ATP Reaction Mixture: for 10 mL, mix 0.4 mL 1 M manganese chloride and 0.02 mL 0.1 M ATP in 9.56 mL dH2O.
12. 4×Negative Controls Mixture: for 10 mL, mix 0.4 mL 1 M manganese chloride in 9.6 mL dH2O.
13. NUNC 96-well V bottom polypropylene plates, Applied Scientific Catalog #S-72092
15. Antibody Dilution Buffer: for 100 mL, mix 10 mL 5% BSA/PBS, 0.5 mL 5% Carnation® Instant Milk in PBS and 0.1 mL 0.1 M sodium orthovanadate in 88.4 mL TBST.
16. Rabbit polyclonal antophosphotyrosine antibody, SUGEN, Inc.
17. Goat anti-rabbit horseradish peroxidase conjugated antibody, Biosource, Inc.
18. ABTS Solution: for 1 L, mix 19.21 g citric acid, 35.49 g Na2HPO4 and 500 mg ABTS with sufficient dH2O to make 1 L.
19. ABTS/H2O2: mix 15 mL ABST solution with 2μL H2O2 five minutes before use.
1. Coat ELISA plates with 2 μg Poly(Glu-Tyr) in 100 μL PBS, hold overnight at 4° C.
2. Block plate with 150 μL of 5% BSA/PBS for 60 min.
3. Wash plate twice with PBS then once with 50 mM Hepes buffer pH 7.4.
4. Add 50 μl of the diluted kinase to all wells. (Purified kinase is diluted with Kinase Dilution Buffer. Final concentration should be 10 ng/well.)
5. Add 25 μL of the test compound (in 4% DMSO) or DMSO alone (4% in dH2O) for controls to plate.
6. Incubate the kinase/compound mixture for 15 minutes.
7. Add 25 μL of 40 mM MnCl2 to the negative control wells.
8. Add 25 μL ATP/MnCl2 mixture to the all other wells (except the negative controls). Incubate for 5 min.
9. Add 25 μL 500 mM EDTA to stop reaction.
10. Wash plate 3× with TBST.
11. Add 100 μL rabbit polyclonal anti-Ptyr diluted 1:10,000 in Antibody Dilution Buffer to each well. Incubate, with shaking, at room temperature for one hour.
12. Wash plate 3× with TBST.
13. Dilute Biosource HRP conjugated anti-rabbit antibody 1:6,000 in Antibody Dilution buffer. Add 100 μL per well and incubate at room temperature, with shaking, for one hour.
14. Wash plate 1× with PBS.
15. Add 100 μl of ABTS/H2O2 solution to each well.
16. If necessary, stop the development reaction with the addition of 100 μl of 0.2M HCl per well.
17. Read plate on Dynatech MR7000 ELISA reader with the test filter at 410 nM and the reference filter at 630 nM.

P38 = P38 (Homo sapiens, UniProt Q16539); assay: P38 kinase inhibition; format: biochemical
Sequence of P38 (Q16539 whole entry): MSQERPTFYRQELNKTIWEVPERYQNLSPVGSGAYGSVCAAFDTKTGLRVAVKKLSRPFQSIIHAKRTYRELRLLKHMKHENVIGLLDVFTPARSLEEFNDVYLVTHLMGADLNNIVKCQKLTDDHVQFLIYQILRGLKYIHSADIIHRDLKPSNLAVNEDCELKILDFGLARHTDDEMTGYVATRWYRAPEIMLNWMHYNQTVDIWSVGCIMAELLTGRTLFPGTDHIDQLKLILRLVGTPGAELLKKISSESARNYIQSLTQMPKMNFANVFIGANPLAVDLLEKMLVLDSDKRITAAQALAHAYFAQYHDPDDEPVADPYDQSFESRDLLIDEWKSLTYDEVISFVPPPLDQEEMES

T1 sequence (P08581 1078-1345 limits assumed): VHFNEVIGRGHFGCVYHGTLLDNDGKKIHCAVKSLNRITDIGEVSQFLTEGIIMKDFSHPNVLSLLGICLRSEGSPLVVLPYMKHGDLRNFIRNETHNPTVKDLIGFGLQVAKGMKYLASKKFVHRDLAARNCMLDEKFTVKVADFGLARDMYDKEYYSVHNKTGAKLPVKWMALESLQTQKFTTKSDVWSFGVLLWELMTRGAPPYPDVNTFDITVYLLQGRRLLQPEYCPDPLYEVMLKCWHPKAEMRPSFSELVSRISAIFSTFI

Row | Structure (SMILES) | IC50 (MET) | IC50 (P38)
1 | COc1ccc(-c2cccc3c2/C(=C/c2[nH]c(C)c(C(=O)NCCN4CCCC4)c2C)C(=O)N3)cc1 [Example 38, 5-[4-(4-Methoxy-phenyl)-2-oxo-1,2-dihydro-indol-3-ylidenemethyl]-2,4-dimethyl-1H-pyrrole-3-carboxylic Acid (2-Pyrrolidin-1-yl-ethyl)-amide] | 110 nM | > 10000 nM
2 | COc1ccc(-c2cccc3c2/C(=C/c2[nH]c(C)cc2C(=O)NCCN2CCCC2)C(=O)N3)cc1 [Example 41, 2-[4-(4-Methoxy-phenyl)-2-oxo-1,2-dihydro-indol-3-ylidenemethyl]-5-methyl-1H-pyrrole-3-carboxylic Acid (2-Pyrrolidin-1-yl-ethyl)-amide] | 320 nM | > 10000 nM
3 | COc1cccc(-c2cccc3c2/C(=C/c2[nH]c(C)c(C(=O)NCCN(C(C)C)C(C)C)c2C)C(=O)N3)c1 [Example 52, 5-[4-(3-Methoxy-phenyl)-2-oxo-1,2-dihydro-indol-3-ylidenemethyl]-2,4-dimethyl-1H-pyrrole-3-carboxylic Acid (2-Diisopropylamino-ethyl)-amide] | 92 nM | > 10000 nM
4 | Cc1[nH]c(/C=C2\C(=O)Nc3cccc(-c4ccc(Br)cc4)c32)c(C)c1C(=O)N1CCN(C)CC1 [Example 53] | 290 nM | > 10000 nM
5 | Cc1cc(C(=O)NCCN2CCCC2)c(/C=C2\C(=O)Nc3cccc(-c4ccc(Br)cc4)c32)[nH]1 [Example 58, 2-[4-(4-Bromo-phenyl)-2-oxo-1,2-dihydro-indol-3-ylidenemethyl]-5-methyl-1H-pyrrole-3-carboxylic Acid (2-Pyrrolidin-1-yl-ethyl)-amide] | 73 nM | > 10000 nM
6 | Cc1[nH]c(/C=C2\C(=O)Nc3cccc(-c4ccc(Br)cc4)c32)c(C)c1C(=O)NCCN(C(C)C)C(C)C [Example 60, 5-[4-(4-Bromo-phenyl)-2-oxo-1,2-dihydro-indol-3-ylidenemethyl]-2,4-dimethyl-1H-pyrrole-3-carboxylic Acid (2-Diisopropylamino-ethyl)-amide] | 250 nM | 7900 nM

The remaining lines, values ahead:

Row | IC50 (MET) | IC50 (P38) | Structure (SMILES)
7 | 270 nM | > 10000 nM | COc1ccc(-c2cccc3c2/C(=C/c2[nH]c(C)c(C(=O)N4C[C@@H](C)N[C@@H](C)C4)c2C)C(=O)N3)cc1 [Example 40, 3-[4-((cis)-3,5-Dimethyl-piperazine-1-carbonyl)-3,5-dimethyl-1H-pyrrol-2-ylmethylene]-4-(4-methoxy-phenyl)-1,3-dihydro-indol-2-one]
8 | 120 nM | > 10000 nM | CCN(CC)CCNC(=O)c1c(C)[nH]c(/C=C2\C(=O)Nc3cccc(-c4cccc(OC)c4)c32)c1C [Example 46, 5-[4-(3-Methoxy-phenyl)-2-oxo-1,2-dihydro-indol-3-ylidenemethyl]-2,4-dimethyl-1H-pyrrole-3-carboxylic Acid (2-Diethylamino-ethyl)-amide]
9 | 1060 nM | > 10000 nM | COc1cccc(-c2cccc3c2/C(=C/c2[nH]c(C)c(C(=O)NCCn4ccnn4)c2C)C(=O)N3)c1 [Example 48, 5-[4-(3-Methoxy-phenyl)-2-oxo-1,2-dihydro-indol-3-ylidenemethyl]-2,4-dimethyl-1H-pyrrole-3-carboxylic Acid (2-[1,2,3]Triazol-1-yl-ethyl)-amide]
10 | 420 nM | > 10000 nM | Cc1[nH]c(/C=C2\C(=O)Nc3cccc(-c4ccc(Br)cc4)c32)c(C)c1C(=O)N1C[C@@H](C)N[C@@H](C)C1 [Example 57, 4-(4-Bromo-phenyl)-3-[4-[(cis)-3,5-dimethyl-piperazine-1-carbonyl)-3,5-dimethyl-1H-pyrrol-2-ylmethylene]-1,3-dihydro-indol-2-one]
11 | 110 nM | 6300 nM | CCN(CC)CCNC(=O)c1c[nH]c(/C=C2\C(=O)Nc3cccc(-c4ccc(Br)cc4)c32)c1C [Example 61, 5-[4-(4-Bromo-phenyl)-2-oxo-1,2-dihydro-indol-3-ylidenemethyl]-4-methyl-1H-pyrrole-3-carboxylic Acid (2-Diethylamino-ethyl)-amide]
